Experimental data from publication PMC11843613, “Further Optimization of the mGlu1 PAM VU6024578/BI02982816: Discovery and Characterization of VU6033685” (ACS Chemical Neuroscience, 2025).
Where “and” joins values, the source holds several entries; their conditions need not be identical. Identical values can stand only once. Like-named read-outs stand apart in the source and are kept apart here.

Columns and labels:
human mGlu1 = biological target: T1, human mGlu1 (Homo sapiens, UniProt Q13255); assay: mGlu1 PAM calcium mobilization assay (human); type: cell-based; conditions: for fold increase in mGlu1 PAM potency over 5: human mGlu1 EC50 ratio versus 5
T1 construct: expressed in transfected cells; pcDNA5/TO)
T1 sequence (Q13255 19-1194): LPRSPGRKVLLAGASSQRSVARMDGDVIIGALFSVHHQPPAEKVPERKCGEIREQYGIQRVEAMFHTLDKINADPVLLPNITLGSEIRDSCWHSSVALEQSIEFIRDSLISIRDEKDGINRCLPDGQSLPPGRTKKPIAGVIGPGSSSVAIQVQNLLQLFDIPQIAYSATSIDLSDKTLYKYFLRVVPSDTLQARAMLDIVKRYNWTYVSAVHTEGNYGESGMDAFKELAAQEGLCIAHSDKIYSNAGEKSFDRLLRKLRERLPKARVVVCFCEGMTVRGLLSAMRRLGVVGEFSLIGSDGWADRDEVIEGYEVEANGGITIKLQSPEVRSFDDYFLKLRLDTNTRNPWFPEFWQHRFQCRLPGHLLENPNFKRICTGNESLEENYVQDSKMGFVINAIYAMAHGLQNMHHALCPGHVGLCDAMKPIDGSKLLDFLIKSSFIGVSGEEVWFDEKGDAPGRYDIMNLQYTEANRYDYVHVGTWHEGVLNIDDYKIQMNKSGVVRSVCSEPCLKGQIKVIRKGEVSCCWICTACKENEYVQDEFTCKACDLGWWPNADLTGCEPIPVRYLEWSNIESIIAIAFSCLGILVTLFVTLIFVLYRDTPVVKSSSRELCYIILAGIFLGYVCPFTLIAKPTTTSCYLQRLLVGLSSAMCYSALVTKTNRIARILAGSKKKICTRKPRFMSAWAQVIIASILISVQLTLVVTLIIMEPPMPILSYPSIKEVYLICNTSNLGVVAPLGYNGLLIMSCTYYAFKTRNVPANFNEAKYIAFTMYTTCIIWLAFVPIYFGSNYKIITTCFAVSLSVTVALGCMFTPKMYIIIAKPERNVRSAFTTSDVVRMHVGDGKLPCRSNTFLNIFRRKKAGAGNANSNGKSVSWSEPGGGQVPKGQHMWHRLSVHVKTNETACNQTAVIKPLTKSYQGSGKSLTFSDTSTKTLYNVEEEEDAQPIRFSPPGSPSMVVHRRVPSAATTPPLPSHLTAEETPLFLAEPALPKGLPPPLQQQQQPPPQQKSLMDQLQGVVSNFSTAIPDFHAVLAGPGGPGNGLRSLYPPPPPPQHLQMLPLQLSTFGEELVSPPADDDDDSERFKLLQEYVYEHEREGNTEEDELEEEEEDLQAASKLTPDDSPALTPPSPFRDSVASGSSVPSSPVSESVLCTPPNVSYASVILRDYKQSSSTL
From the text: Molecular Pharmacology. Tetracycline-tested fetal bovine serum (FBS) was purchased from Atlanta Biologicals (Lawrenceville, GA), and all other tissue culture reagents and Fluo-4-acetoxymethylester (Fluo-4-AM) were purchased from Life Technologies (Carlsbad, CA).
Tetracycline hydrochloride (Sigma), L-glutamic acid (Tocris, Minneapolis, MN), and (S)-3,5-dihydroxyphenylglycine (DHPG) (Abcam, Cambridge, MA). EZ-Link Sulfo-NHS-SS-Biotin and NeutrAvidin agarose beads (Pierce Biotechnology, Rockford, IL).
Cell Culture and Mutagenesis. Tetracycline-inducible human mGlu 1 WT-T-RExTM-293 cells (Wu et al, Science 2014) were cultured at 37 °C in Dulbecco’s Modified Eagle Medium (DMEM) growth medium containing 10% Tet-tested FBS, 2 mM L-glutamine, 20 mM HEPES, 0.1 mM non-essential amino acids, 1 mM sodium pyruvate, antibiotic/antimycotic, 100 µg/mL hygromycin and 5 µg/mL blasticidin in the presence of 5% CO 2. […]
Calcium Mobilization Assay. To determine the potency of mGlu 1 PAMs in calcium assays, Ca flux was measured as previously described in ACS Chem. Bio. 2014, 9, 2334-2346. Briefly, the day before the assay, human mGlu1 WT-T-RExTM-293 cells were plated in black-walled, clear-bottomed, poly-D-lysine coated 96-well plates at 80,000 cells/100 µL assay medium (DMEM supplemented with 10% dialyzed FBS, 20 mM HEPES, and 1 mM sodium pyruvate) containing 50 ng/mL of tetracycline to induce mGlu1 expression. The next day, media was removed and the cells were incubated with 50 µL of 1.15 µM Fluo-4 AM dye solution prepared in assay buffer (buffer (Hank’s balanced salt solution, 20 mM HEPES, and 2.5 mM probenecid) for 45 min at 37 °C, the dye was removed and replaced with 45 µL of assay buffer. Then, calcium flux was measured using Flexstation II (Molecular Devices, Sunnyvale, CA). Compounds serially diluted […]
at half log concentrations in DMSO were further diluted in assay buffer. The compounds or DMSO vehicle were added to cells and incubated for 2.5 min and an EC20 concentration of glutamate was added and incubated for 1 min. An ECmax concentration of glutamate was also added to cells that were incubated with DMSO vehicle to accurately calculate the EC20 calcium response. Data were normalized by subtracting the basal florescent peak before EC20 agonist addition from the maximal peak elicited by EC20 agonist and PAMs. Using GraphPad Prism 5.0, the concentration response curves were generated and the potencies of the mGlu1 PAMs were determined. […]

[1] = Rat IV/PO pharmacokinetics; type: in vivo; conditions: for clearance / Vd / half-life / Tmax: plasma; for clearance / Vd: rat IV; for clearance: read-out: CLp; for F po / Tmax: rat PO; for Vd / half-life: rat; for Vd: iv, read-out: Vss; for half-life: read-out: Elimination t1/2 (converted)
P-gp = biological target: T2, P-gp (Homo sapiens, UniProt P08183); assay: MDCK-MDR1 efflux and permeability; type: in vitro ADME; conditions: for Papp / efflux ratio: dog, MDCK-MDR1; for efflux ratio: read-out: P-gp, MDCK-MDR1 ER
T2 construct: expressed in transfected cells; host or cells: MDCK-MDR1
T2 sequence (P08183 whole entry): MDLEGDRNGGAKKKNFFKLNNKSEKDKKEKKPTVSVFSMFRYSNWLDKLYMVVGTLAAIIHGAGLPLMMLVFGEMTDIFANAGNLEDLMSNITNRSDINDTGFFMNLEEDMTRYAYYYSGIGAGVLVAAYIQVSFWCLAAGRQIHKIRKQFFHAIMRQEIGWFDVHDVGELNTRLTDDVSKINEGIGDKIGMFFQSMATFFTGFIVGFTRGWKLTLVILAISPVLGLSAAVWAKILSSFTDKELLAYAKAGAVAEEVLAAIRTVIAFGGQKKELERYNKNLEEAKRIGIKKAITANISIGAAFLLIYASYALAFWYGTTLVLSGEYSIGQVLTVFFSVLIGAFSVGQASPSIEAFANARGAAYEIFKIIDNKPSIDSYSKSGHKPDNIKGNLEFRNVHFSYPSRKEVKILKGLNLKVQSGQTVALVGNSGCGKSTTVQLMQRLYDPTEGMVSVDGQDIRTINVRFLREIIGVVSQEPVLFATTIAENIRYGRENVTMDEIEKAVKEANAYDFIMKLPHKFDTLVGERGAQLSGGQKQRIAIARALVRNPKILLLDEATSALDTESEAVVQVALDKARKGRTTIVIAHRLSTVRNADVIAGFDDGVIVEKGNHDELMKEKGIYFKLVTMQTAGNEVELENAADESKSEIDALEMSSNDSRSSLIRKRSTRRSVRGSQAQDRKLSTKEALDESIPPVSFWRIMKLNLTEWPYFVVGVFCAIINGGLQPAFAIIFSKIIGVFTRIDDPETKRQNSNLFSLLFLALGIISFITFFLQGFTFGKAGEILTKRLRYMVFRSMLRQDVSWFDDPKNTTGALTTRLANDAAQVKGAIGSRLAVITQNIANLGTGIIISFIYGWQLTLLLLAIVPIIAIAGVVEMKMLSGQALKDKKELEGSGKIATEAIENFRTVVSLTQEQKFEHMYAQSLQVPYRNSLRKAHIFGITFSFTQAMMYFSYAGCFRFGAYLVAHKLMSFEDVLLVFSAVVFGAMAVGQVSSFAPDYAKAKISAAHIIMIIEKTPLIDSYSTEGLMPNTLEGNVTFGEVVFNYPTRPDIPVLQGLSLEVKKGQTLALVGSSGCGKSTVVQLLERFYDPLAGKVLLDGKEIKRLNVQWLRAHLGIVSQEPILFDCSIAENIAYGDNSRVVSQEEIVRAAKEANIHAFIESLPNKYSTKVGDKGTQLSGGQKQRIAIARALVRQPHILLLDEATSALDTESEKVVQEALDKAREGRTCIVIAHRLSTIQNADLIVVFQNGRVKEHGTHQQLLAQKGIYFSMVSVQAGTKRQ

Kinetic solubility = type: physicochemical; conditions: kinetic from dmso stock
striatal DA release = assay: Electrically evoked striatal DA release in brain slices (fast scanning cyclic voltammetry); conditions: 10 μM PAM + 10 μM DHPG, mouse slices, 1 μM DHβE present
Procedure: into the home cage. The arena is then cleaned with 70% ethanol in between animals. The day of the test the animals are habituated to the dosing room for 2 hours. The animals were administered VU6024578 (1-10 mg/kg p.o.) or vehicle (10% Tween 80) and were placed back into their homecage for 60 min. The animals were then injected with MK-801 (0.075 mg/kg 1 ml/kg s.c.) and placed back in the homecage for 30 min. The animals are then placed into the arena with two identical familiar objects for ten minutes and then placed back into the home cage. The animals are then placed back into the arena with one of the familiar objects replaced with a novel object at 120 min after the familiar object exposure. The activity of the animals are recorded and the time spent exploring each of the objects is scored by a blinded observer. Recognition index is determined by subtracting […] divided by total time spent exploring.
Brain Slice Preparation and Fast Scanning Cyclic Voltammetry: […]
Electrically-evoked dopamine overflow was monitored with carbon fiber electrodes as previously reported (Foster et al. 2014). […]

Row | Structure (SMILES) | EC50 (human mGlu1) | human mGlu1 Glu Max (human mGlu1) [%] | clearance [1] [mL/min/kg] | F po [1] [%] | Vd [1] [L/kg] | half-life [1] [h] | Papp (P-gp) [×10⁻⁶ cm/s] | efflux ratio (P-gp) | Tmax [1] [h] | fold increase in mGlu1 PAM potency over 5 (human mGlu1) [fold] | P-gp, MDCK-MDR1 ER (P-gp) | solubility kinetic (Kinetic solubility; pH 2.2, aqueous buffer, read-out: Kinetic solubility pH 2.2) [µM] | solubility kinetic (Kinetic solubility; pH 6.8, aqueous buffer, read-out: Kinetic solubility pH 6.8) [µM] | effect on striatal DA release when coapplied with subthreshold DHPG (striatal DA release)
1 | Cn1cc(-c2cc(CNC(=O)c3cc(-c4ccco4)ccc3Cl)n(C)n2)cn1 [compound 4] | 0.028 µM | 72 |  |  |  |  |  |  |  |  |  |  |  | 
2 | Cn1nc(-c2ccnn2C)cc1CNC(=O)c1cc(-n2cccn2)ccc1Cl [compound 5] | 0.527 µM and 0.551 µM | 76 | 2.9 | 45.7 | 0.63 | 3 |  |  |  |  |  |  |  | 
3 | Cc1nc2ccccc2cc1CNC(=O)c1cc(-n2cccn2)ccc1Cl [compound 6] | 0.032 µM | 56 | 15.3 | 64 | 1.64 | 1.1 | 39 | 0.5 | 0.5 |  |  |  |  | 
4 | Cc1nc2c(F)cccc2cc1CNC(=O)c1cc(-n2cccn2)ccc1Cl [compound 7] | 0.017 µM | 56 | 8 |  | 1 | 2.1 |  |  |  | ~31 |  |  |  | 
5 | Cc1nc(C2CC2)ccc1CNC(=O)c1cc(-n2cccn2)ccc1Cl [compound 8] | 0.039 µM | 65 | 26.4 | 42.8 | 5.1 | 2.1 | 42 | 0.93 | 0.5 | ~14 | 0.93 | > 100 | < 1 | robust inhibition of DA release
